Experiments:
[1] = biological target: 3-phosphoinositide-dependent protein kinase 1 (Homo sapiens) (UniProt O15530); conditions: Compound concentration 1000.0 nM
[2] = biological target: Ephrin type-B receptor 1 (Homo sapiens) (UniProt P54762); conditions: Compound concentration 1000.0 nM
[3] = biological target: Platelet-derived growth factor receptor beta (Homo sapiens) (UniProt P09619); conditions: Compound concentration 1000.0 nM
[4] = biological target: Phosphatidylinositol 4-phosphate 5-kinase type-1 gamma (Homo sapiens) (UniProt O60331); conditions: Compound concentration 1000.0 nM
[5] = system: Tyrosine-protein kinase ABL1 (Homo sapiens), P00519 [Q252H]; conditions: Compound concentration 1000.0 nM
[6] = biological target: Dual specificity mitogen-activated protein kinase kinase 6 (Homo sapiens) (UniProt P52564); conditions: Compound concentration 1000.0 nM
[7] = biological target: Mitogen-activated protein kinase kinase kinase 7 (Homo sapiens) (UniProt O43318); conditions: Compound concentration 1000.0 nM
[8] = biological target: Phosphorylase b kinase regulatory subunit alpha, liver isoform (Homo sapiens) (UniProt P46019); conditions: Compound concentration 1000.0 nM
[9] = biological target: G protein-coupled receptor kinase 4 (Homo sapiens) (UniProt P32298); conditions: Compound concentration 1000.0 nM
Rattus norvegicus [10] = organism: Rattus norvegicus; assay: Inhibition of Imidazoline I2, Central at 10 µM in the Eurofins-Panlabs radioligand binding assay (Eurofins_assay_241000); parameters: ligand concentration 2 nM; conditions: Compound concentration 10.0 uM
[11] = biological target: Cannabinoid receptor 1 (Homo sapiens) (UniProt P21554); conditions: Compound concentration 10.0 uM
Rattus norvegicus [12] = organism: Rattus norvegicus; assay: Inhibition of Glutamate, NMDA, Phencyclidine at 10 µM in the Eurofins-Panlabs radioligand binding assay (Eurofins_assay_233000); assay type: protein-complex assay; conditions: Compound concentration 10.0 uM
[13] = biological target: Sigma non-opioid intracellular receptor 1 (Homo sapiens) (UniProt Q99720); assay: Inhibition of Sigma 1 at 10 µM in the Eurofins-Panlabs radioligand binding assay (Eurofins_assay_278110); parameters: ligand concentration 8 nM; conditions: Compound concentration 10.0 uM
[14] = biological target: B1 bradykinin receptor (Homo sapiens) (UniProt P46663); assay: Inhibition of Bradykinin B1 at 10 µM in the Eurofins-Panlabs radioligand binding assay (Eurofins_assay_212510); conditions: Compound concentration 10.0 uM
[15] = biological target: Delta-type opioid receptor (Homo sapiens) (UniProt P41143); conditions: Compound concentration 10.0 uM
[16] = biological target: T1, Muscarinic acetylcholine receptor M1 (Homo sapiens) (UniProt P11229); conditions: Compound concentration 10.0 uM
T1 sequence (whole entry): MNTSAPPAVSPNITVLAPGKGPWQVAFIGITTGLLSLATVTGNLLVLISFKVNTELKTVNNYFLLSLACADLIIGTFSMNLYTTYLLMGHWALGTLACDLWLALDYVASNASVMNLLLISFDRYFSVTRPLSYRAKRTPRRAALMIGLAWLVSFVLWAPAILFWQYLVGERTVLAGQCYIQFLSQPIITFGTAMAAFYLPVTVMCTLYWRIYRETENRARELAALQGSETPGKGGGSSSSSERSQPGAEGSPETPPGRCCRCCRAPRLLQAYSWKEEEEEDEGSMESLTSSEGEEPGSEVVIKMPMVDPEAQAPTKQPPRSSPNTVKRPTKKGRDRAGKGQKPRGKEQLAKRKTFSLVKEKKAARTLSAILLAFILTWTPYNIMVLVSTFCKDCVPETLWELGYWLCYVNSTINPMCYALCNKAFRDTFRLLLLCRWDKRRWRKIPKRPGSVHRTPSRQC

[17] = biological target: Adenosine receptor A1 (Homo sapiens) (UniProt P30542); conditions: Compound concentration 10.0 uM
Rattus norvegicus [18] = organism: Rattus norvegicus; conditions: Compound concentration 10.0 uM
[19] = biological target: Neuropeptide Y receptor type 1 (Homo sapiens) (UniProt P25929); assay: Inhibition of Neuropeptide Y Y1 at 10 µM in the Eurofins-Panlabs radioligand binding assay (Eurofins_assay_257010); conditions: Compound concentration 10.0 uM
[20] = biological target: Mu-type opioid receptor (Homo sapiens) (UniProt P35372); conditions: Compound concentration 10.0 uM
hERG (KCNH2) = hERG (KCNH2) (Homo sapiens, UniProt Q12809); assay: Inhibition of Potassium Channel hERG at 10 µM in the Eurofins-Panlabs radioligand binding assay (Eurofins_assay_265900); parameters: ligand concentration 1.5 nM, non-specific ligand with concentration Astemizole, incubation time 60 min, incubation temperature 25 °C; conditions: HEK-293 cells expressing human recombinant hERG, probe [3H] Astemizole, compound concentration 10 uM
[21] = biological target: ATP-sensitive inward rectifier potassium channel 11 (Cricetulus griseus) (UniProt A0A3L7HHE1); assay: Inhibition of Potassium Channel [KATP] at 10 µM in the Eurofins-Panlabs radioligand binding assay (Eurofins_assay_265600); conditions: Cricetinae; Compound concentration 10.0 uM
[22] = biological target: 5-hydroxytryptamine receptor 3A (Homo sapiens) (UniProt P46098); conditions: Compound concentration 10.0 uM
[23] = biological target: T2, 5-hydroxytryptamine receptor 1A (Homo sapiens) (UniProt P08908); conditions: Compound concentration 10.0 uM
T2 sequence (whole entry): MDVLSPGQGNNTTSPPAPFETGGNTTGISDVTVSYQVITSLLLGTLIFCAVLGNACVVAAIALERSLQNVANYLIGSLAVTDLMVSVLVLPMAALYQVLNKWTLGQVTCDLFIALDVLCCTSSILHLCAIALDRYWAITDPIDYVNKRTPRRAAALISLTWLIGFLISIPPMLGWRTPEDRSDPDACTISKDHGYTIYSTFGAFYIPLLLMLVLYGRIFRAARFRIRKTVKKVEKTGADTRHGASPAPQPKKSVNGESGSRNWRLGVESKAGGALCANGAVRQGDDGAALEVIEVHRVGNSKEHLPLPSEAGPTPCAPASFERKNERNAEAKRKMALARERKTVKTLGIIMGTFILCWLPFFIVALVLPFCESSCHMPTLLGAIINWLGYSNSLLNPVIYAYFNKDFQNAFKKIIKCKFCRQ

[24] = biological target: Sodium-dependent serotonin transporter (Homo sapiens) (UniProt P31645); conditions: Compound concentration 10.0 uM
Rattus norvegicus [25] = organism: Rattus norvegicus; assay: Inhibition of Rolipram at 10 µM in the Eurofins-Panlabs radioligand binding assay (Eurofins_assay_268811); assay type: protein assay; parameters: ligand concentration 1.8 nM; conditions: Compound concentration 10.0 uM
[26] = biological target: Cysteinyl leukotriene receptor 1 (Homo sapiens) (UniProt Q9Y271); assay: Inhibition of Leukotriene, Cysteinyl CysLT1 at 10 µM in the Eurofins-Panlabs radioligand binding assay (Eurofins_assay_250460); parameters: ligand concentration 0.3 nM, non-specific ligand with concentration 0.3 µM Leukotriene D4, incubation time 30 min, incubation temperature 25 °C; conditions: Compound concentration 10.0 uM
[27] = biological target: Mu-type opioid receptor (Homo sapiens) (UniProt P35372); conditions: Compound concentration 10.0 uM; remark: listed apart in the source
[28] = biological target: Acetylcholine receptor subunit alpha (Homo sapiens) (UniProt P02708); assay: Inhibition of Nicotinic Acetylcholine D1, Bungarotoxin at 10 µM in the Eurofins-Panlabs radioligand binding assay (Eurofins_assay_258700); conditions: Compound concentration 10.0 uM
[29] = biological target: Kappa-type opioid receptor (Homo sapiens) (UniProt P41145); conditions: Compound concentration 10.0 uM

Sequence of Dual specificity mitogen-activated protein kinase kinase 6 (Homo sapiens) (P52564 whole entry): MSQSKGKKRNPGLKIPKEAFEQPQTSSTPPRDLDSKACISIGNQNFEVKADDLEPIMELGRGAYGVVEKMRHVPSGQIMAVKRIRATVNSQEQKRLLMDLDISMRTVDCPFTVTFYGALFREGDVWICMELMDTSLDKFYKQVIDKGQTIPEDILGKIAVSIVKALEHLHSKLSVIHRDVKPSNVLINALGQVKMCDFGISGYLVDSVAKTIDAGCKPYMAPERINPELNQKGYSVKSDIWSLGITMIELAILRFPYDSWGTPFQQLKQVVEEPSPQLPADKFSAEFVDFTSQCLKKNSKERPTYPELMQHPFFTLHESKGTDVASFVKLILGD
Sequence of Platelet-derived growth factor receptor beta (Homo sapiens) (P09619 whole entry): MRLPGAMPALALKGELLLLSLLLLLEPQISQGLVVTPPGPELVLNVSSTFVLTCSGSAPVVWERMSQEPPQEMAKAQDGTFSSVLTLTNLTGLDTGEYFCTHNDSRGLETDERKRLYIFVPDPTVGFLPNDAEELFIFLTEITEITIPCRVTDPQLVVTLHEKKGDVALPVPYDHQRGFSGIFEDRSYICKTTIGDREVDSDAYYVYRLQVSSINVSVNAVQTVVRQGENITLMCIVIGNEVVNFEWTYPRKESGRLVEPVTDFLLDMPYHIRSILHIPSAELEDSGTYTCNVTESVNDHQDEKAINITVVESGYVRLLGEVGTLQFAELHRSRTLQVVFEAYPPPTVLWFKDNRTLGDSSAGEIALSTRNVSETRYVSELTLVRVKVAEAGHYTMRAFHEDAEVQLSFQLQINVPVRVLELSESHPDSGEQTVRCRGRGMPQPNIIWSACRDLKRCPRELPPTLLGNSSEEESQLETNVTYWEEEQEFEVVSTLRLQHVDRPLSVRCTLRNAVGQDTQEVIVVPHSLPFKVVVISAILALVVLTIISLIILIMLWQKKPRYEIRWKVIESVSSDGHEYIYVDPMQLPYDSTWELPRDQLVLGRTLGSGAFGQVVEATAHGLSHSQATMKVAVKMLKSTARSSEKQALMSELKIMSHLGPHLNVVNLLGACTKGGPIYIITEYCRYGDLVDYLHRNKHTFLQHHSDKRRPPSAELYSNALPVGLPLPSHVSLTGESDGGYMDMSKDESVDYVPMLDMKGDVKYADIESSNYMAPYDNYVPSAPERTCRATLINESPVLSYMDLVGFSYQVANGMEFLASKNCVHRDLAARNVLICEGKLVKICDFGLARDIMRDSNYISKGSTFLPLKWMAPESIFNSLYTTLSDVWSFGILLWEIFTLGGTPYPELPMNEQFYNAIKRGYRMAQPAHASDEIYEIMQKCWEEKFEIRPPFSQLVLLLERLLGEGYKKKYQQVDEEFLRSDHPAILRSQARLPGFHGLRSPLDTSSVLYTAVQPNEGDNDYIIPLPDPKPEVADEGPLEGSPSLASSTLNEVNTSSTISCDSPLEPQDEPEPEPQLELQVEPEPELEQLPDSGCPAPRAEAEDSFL
Sequence of Mu-type opioid receptor (Homo sapiens) (P35372 whole entry): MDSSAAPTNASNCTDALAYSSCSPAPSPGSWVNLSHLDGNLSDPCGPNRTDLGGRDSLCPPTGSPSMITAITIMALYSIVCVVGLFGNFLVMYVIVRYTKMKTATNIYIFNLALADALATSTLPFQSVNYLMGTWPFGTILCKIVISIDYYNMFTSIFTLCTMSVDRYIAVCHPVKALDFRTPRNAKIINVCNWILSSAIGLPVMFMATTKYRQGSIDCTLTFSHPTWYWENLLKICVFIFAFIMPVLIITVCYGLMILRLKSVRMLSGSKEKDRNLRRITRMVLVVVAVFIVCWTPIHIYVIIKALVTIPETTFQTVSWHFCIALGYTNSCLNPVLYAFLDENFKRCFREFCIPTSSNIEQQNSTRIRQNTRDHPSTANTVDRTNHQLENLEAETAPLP
Sequence of Ephrin type-B receptor 1 (Homo sapiens) (P54762 whole entry): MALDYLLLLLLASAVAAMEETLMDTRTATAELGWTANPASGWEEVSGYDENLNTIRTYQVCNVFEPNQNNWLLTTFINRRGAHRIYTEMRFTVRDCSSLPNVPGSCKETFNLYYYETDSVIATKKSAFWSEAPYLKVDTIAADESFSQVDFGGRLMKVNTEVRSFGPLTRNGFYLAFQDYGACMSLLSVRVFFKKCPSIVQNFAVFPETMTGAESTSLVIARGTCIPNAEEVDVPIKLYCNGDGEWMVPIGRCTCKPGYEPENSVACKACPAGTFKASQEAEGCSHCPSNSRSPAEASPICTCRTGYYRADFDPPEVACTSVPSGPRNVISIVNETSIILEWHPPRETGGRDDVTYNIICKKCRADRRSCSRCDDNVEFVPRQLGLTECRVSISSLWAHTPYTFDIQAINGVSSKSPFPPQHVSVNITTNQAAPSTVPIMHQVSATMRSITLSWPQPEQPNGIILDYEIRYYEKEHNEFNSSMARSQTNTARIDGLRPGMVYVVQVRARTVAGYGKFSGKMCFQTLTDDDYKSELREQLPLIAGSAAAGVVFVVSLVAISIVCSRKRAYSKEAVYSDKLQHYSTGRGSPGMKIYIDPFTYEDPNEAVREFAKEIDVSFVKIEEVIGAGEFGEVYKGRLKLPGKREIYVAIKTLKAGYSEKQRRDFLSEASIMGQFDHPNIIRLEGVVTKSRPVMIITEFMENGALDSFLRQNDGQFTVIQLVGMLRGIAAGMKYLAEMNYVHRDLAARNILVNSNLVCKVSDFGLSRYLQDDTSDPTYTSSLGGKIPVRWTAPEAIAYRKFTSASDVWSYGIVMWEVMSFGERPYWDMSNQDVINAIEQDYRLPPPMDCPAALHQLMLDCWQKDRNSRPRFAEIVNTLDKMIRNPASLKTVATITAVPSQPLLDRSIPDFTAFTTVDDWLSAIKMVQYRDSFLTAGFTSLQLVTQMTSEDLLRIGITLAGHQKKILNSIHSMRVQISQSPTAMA
Sequence of G protein-coupled receptor kinase 4 (Homo sapiens) (P32298 whole entry, looked up): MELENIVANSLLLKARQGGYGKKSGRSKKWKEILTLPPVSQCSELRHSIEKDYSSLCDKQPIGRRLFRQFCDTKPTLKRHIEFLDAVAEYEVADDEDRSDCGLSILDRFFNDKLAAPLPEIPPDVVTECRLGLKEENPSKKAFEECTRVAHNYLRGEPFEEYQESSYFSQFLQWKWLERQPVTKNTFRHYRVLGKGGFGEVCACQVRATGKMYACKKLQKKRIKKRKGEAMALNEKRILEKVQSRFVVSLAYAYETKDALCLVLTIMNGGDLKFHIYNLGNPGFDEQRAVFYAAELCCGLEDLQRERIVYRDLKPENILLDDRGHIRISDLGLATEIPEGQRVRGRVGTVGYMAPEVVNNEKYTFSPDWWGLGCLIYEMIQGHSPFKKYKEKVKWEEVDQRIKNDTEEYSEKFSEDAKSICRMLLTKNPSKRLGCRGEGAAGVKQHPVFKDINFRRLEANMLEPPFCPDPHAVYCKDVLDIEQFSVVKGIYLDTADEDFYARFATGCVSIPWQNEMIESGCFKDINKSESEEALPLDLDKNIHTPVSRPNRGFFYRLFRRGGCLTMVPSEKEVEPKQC
Sequence of Phosphorylase b kinase regulatory subunit alpha, liver isoform (Homo sapiens) (P46019 whole entry, canonical isoform): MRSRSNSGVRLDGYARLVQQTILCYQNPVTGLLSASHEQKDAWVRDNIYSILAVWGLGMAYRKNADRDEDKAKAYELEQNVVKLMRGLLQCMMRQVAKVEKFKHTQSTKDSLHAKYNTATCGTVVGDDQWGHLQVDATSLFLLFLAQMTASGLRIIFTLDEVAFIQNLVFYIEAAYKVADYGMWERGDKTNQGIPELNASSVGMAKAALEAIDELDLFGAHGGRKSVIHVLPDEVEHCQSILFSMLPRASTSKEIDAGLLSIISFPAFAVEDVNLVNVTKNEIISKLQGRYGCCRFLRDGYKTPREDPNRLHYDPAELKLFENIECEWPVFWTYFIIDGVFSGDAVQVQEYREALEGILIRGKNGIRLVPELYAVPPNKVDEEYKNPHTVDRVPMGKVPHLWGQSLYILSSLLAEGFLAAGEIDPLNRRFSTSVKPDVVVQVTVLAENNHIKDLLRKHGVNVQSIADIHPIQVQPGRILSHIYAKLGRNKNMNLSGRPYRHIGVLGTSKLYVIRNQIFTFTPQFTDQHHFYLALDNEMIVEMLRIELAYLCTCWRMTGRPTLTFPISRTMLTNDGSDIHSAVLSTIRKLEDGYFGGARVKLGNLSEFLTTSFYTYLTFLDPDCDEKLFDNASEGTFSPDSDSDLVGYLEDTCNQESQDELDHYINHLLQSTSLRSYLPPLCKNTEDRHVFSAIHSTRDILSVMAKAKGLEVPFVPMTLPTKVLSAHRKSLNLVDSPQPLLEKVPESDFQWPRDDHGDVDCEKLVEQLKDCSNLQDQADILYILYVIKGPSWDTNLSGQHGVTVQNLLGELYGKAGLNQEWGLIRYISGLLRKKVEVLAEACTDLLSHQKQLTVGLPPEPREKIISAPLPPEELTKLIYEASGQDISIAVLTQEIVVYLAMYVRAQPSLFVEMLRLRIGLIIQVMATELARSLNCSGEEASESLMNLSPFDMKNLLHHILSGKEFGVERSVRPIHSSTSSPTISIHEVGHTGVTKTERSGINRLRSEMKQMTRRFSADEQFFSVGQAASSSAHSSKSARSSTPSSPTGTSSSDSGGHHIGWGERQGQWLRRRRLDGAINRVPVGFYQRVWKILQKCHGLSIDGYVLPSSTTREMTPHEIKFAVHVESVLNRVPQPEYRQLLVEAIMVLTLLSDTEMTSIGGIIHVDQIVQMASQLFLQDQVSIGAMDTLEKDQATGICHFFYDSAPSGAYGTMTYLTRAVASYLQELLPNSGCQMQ
Sequence of ATP-sensitive inward rectifier potassium channel 11 (Cricetulus griseus) (A0A3L7HHE1 as listed by the source): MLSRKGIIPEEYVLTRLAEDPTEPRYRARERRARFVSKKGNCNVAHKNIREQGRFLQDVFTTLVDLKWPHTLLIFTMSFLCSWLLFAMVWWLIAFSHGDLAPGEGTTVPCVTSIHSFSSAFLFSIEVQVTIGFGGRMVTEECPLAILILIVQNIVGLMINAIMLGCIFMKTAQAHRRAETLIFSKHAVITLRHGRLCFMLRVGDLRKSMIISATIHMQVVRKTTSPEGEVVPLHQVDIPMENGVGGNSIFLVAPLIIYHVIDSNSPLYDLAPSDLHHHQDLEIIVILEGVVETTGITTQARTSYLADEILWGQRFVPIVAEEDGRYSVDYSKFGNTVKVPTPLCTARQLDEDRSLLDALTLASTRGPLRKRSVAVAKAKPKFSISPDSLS

## O=C(O)[C@@H]1[C@@H](Cn2nnc3ccccc3c2=O)CC[C@H]1C(=O)c1ccc(OCCC2CCOCC2)cc1 [BAY-694]
[1]
  residual activity: 80%
[2]
  residual activity: 100%
[3]
  residual activity: 100%
[4]
  residual activity: 100%
[5]
  residual activity: 96%
[6]
  residual activity: 100%
[7]
  residual activity: 86%
[8]
  residual activity: 100%
[9]
  residual activity: 100%

## O=C(O)[C@H]1[C@H](Cn2nnc3ccccc3c2=O)CC[C@@H]1C(=O)c1ccc(OCCC2CCOCC2)cc1 [BAY-7598]
Rattus norvegicus [10]
  inhibition: 5%
[11]
  inhibition: 17%
[1]
  residual activity: 74%
Rattus norvegicus [12]
  inhibition: 4%
[2]
  residual activity: 100%
[13]
  inhibition: -7%
[14]
  inhibition: 6%
[15]
  inhibition: 9%
[16]
  inhibition: 0%
[3]
  residual activity: 88%
[17]
  inhibition: -2%
[4]
  residual activity: 100%
Rattus norvegicus [18]
  inhibition: 1%
[5]
  residual activity: 98%
[6]
  residual activity: 100%
[19]
  inhibition: 1%
[7]
  residual activity: 100%
[20]
  inhibition: -9%
hERG (KCNH2)
  inhibition at 60 min, 10 µM: 7% (not active)
[21]
  inhibition: 9%
[8]
  residual activity: 100%
[22]
  inhibition: -7.84%
[9]
  residual activity: 82%
[23]
  inhibition: -9%
[24]
  inhibition: 9%
Rattus norvegicus [25]
  inhibition: 10%
[26]
  inhibition: 8%
[27]
  inhibition: -9.72%
[28]
  inhibition: 0%
[29]
  inhibition: 7%

From ChEMBL document CHEMBL4507264, “Data for DCP probe BAY-7598” (2021)
